Assay results taken from the supplement of paper PMC11061612.

Assays:
[1] = system: HCC1428 (Breast Carcinoma); assay: Bliss excess, mean over the matrix (fraction); higher = more synergy
How it was run: (§1)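 After 24 hours at 37°C and 5% CO2 in 1536-well plates, cells in DMEM/F12 or RPMI plus 10% FBS received two-drug dose matrices for 72 hours. Viability came from CellTiter-Glo 2.0 luminescence and was scaled as inhibition, anchored at 0 by vehicle wells and at 1 by blank wells. Combination Emax is taken as the second-highest inhibition in the matrix, and Bliss excess as the observed combination effect less EA + EB − EA·EB, with EA and EB the single-agent effects.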

[2] = system: HT55 (Colorectal Carcinoma); assay: as above
How it was run: as §1

[3] = system: A253 (Head and Neck Carcinoma); assay: as above
How it was run: as §1

EW-16 (Ewing's Sarcoma) = assay: as above
How it was run: as §1

[4] = system: DMS-53 (Small Cell Lung Carcinoma); assay: as above
How it was run: as §1

[5] = system: TE-10 (Esophageal Squamous Cell Carcinoma); assay: as above
How it was run: as §1

[6] = system: NCI-H716 (Colorectal Carcinoma); assay: as above
How it was run: as §1

RH-41 (Rhabdomyosarcoma) = assay: as above
How it was run: as §1

AU565 (Breast Carcinoma) [7] = assay: as above
How it was run: as §1

[8] = system: GA-10 (Burkitt's Lymphoma); assay: as above
How it was run: as §1

[9] = system: Jurkat (T-Lymphoblastic Leukemia); assay: as above
How it was run: as §1

KP-N-YN (Neuroblastoma) = assay: as above
How it was run: as §1

[10] = system: CAL-27 (Oral Cavity Carcinoma); assay: as above
How it was run: as §1

[11] = system: OACp4C (Esophageal Adenocarcinoma); assay: as above
How it was run: as §1

[12] = system: CESS (Acute Myeloid Leukemia); assay: as above
How it was run: as §1

A101D (Melanoma) = assay: as above
How it was run: as §1

[13] = system: NCI-H2228 (Lung Adenocarcinoma); assay: as above
How it was run: as §1

[14] = system: EPLC-272H (Other Solid Carcinomas); assay: as above
How it was run: as §1

[15] = system: CA46 (Burkitt's Lymphoma); assay: as above
How it was run: as §1

AU565 (Breast Carcinoma) [16] = assay: combination Emax (second highest fraction inhibited in the dose matrix, 72 h); higher = more inhibition; extreme values may be limits of the assay
How it was run: as §1
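For Bliss excess, mean over the matrix in this document: after 72 h of two-drug dosing.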

SMILES | Bliss excess [1] | Bliss excess [2] | Bliss excess [3] | Bliss excess (EW-16 (Ewing's Sarcoma)) | Bliss excess [4] | Bliss excess [5] | Bliss excess [6] | Bliss excess (RH-41 (Rhabdomyosarcoma)) | Bliss excess (AU565 (Breast Carcinoma) [7]) | Bliss excess [8] | Bliss excess [9] | Bliss excess (KP-N-YN (Neuroblastoma)) | Bliss excess [10] | Bliss excess [11] | Bliss excess [12] | Bliss excess (A101D (Melanoma)) | Bliss excess [13] | Bliss excess [14] | Bliss excess [15] | combination Emax (AU565 (Breast Carcinoma) [16])
CN(CCO)CC[C@H](CSc1ccccc1)Nc1ccc(S(=O)(=O)NC(=O)c2ccc(N3CCC([C@@H](O)c4ccccc4-c4ccc(Cl)cc4)CC3)cc2)cc1S(=O)(=O)C(F)(F)F [AZD4320] + C1CN(CCC1(C(=O)N[C@@H](CCO)C2=CC=C(C=C2)Cl)N)C3=NC=NC4=C3C=CN4 [Capivasertib] (first compound max 1 µM, 7x7, partner max 3 µM) | -0.0092 | -0.0469 | -0.0035 | -0.0469 | -0.0195 | -0.0212 | -0.0262 | -0.0159 | 0.0161 | -0.0283 | -0.0203 | -0.0237 | -0.0362 | 0.0209 | 0.0517 | -0.0695 | -0.0392 | -0.0089 | -0.0496 | 0.413
CN(CCO)CC[C@H](CSc1ccccc1)Nc1ccc(S(=O)(=O)NC(=O)c2ccc(N3CCC([C@@H](O)c4ccccc4-c4ccc(Cl)cc4)CC3)cc2)cc1S(=O)(=O)C(F)(F)F [AZD4320] + CC(=O)O[C@H]1C(=O)[C@@]2(C)[C@H]([C@H](OC(=O)c3ccccc3)[C@]3(O)C[C@H](OC(=O)[C@H](O)[C@@H](NC(=O)c4ccccc4)c4ccccc4)C(C)=C1C3(C)C)[C@]1(OC(C)=O)CO[C@@H]1C[C@@H]2O [Paclitaxel] (first compound max 1 µM, 7x7, partner max 3 µM) |  |  |  |  |  |  |  |  |  |  |  | 0.0826 |  |  |  |  |  |  |  | 
CN(CCO)CC[C@H](CSc1ccccc1)Nc1ccc(S(=O)(=O)NC(=O)c2ccc(N3CCC([C@@H](O)c4ccccc4-c4ccc(Cl)cc4)CC3)cc2)cc1S(=O)(=O)C(F)(F)F [AZD4320] + C[C@@H](Nc1cc(F)cc(F)c1)c1cc(C(=O)N(C)C)cc2c(=O)cc(N3CCOCC3)oc12 [AZD8186] (first compound max 1 µM, 7x7, partner max 3 µM) | 0.0149 | -0.0003 | 0.0229 | -0.0129 | 0.0138 | 0.0157 | 0.0234 | 0.0706 | 0.035 | 0.0166 | 0.0576 | -0.0097 | 0.0005 |  | -0.0209 | 0.0831 | -0.0301 | 0.0633 | 0.0317 | 0.364
CN(CCO)CC[C@H](CSc1ccccc1)Nc1ccc(S(=O)(=O)NC(=O)c2ccc(N3CCC([C@@H](O)c4ccccc4-c4ccc(Cl)cc4)CC3)cc2)cc1S(=O)(=O)C(F)(F)F [AZD4320] + Cn1cnc2c(F)c(Nc3ccc(Br)cc3Cl)c(C(=O)NOCCO)cc21 [Selumetinib] (first compound max 1 µM, 7x7, partner max 3 µM) | 0.0011 | 0.0074 | 0.0339 | 0.076 | 0.0964 | -0.0187 |  | 0.0087 | 0.0474 | -0.0143 | 0.0229 | 0.0076 | 0.0321 | 0.0737 | -0.0701 | -0.0099 | 0.0075 | 0.0108 | -0.0435 | 0.421
COc1nnc2ccc(N3CCC(c4ccc(OCCN5CCN(C)C(=O)[C@H]5C)cc4)CC3)nn12 [AZD5153] + CN(CC[C@H](CSC1=CC=CC=C1)NC2=C(C=C(C=C2)S(=O)(=O)NC(=O)C3=CC=C(C=C3)N4CCC(CC4)[C@H](C5=CC=CC=C5C6=CC=C(C=C6)Cl)O)S(=O)(=O)C(F)(F)F)CCO [AZD4320] (first compound max 1 µM, 7x7, partner max 1 µM) | 0.0114 | -0.0021 | 0.0043 | 0.0851 | -0.0168 |  | -0.0394 | 0.0427 | 0.0811 | -0.0394 | 0.041 |  | 0.0151 | -0.0404 | 0.0356 | 0.0648 | 0.0351 | -0.04 | -0.0053 | 0.386
Cc1cc2ncnn2cc1Nc1ncc2c(n1)n(C1CCOCC1)c(=O)n2C [AZD7648] + COc1cc([C@@H]2c3cc4c(cc3[C@@H](O[C@@H]3O[C@@H]5CO[C@@H](C)O[C@H]5[C@H](O)[C@H]3O)[C@H]3COC(=O)[C@H]23)OCO4)cc(OC)c1O [Etoposide] (first compound max 10 µM, 7x7, partner max 10 µM) |  |  |  |  |  |  |  |  |  |  |  | 0.0446 |  |  |  |  |  |  |  | 
Cc1nc(Nc2ncc(C(=O)Nc3c(C)cccc3Cl)s2)cc(N2CCN(CCO)CC2)n1 [Dasatinib] + CC(=O)Nc1cccc(-n2c(=O)n(C3CC3)c(=O)c3c(Nc4ccc(I)cc4F)n(C)c(=O)c(C)c32)c1 [Trametinib] (first compound max 2 µM, 7x7, partner max 1 µM) | -0.0334 | -0.032 | -0.189 | -0.0358 | -0.0423 |  | -0.0355 | -0.0946 | -0.0345 | 0.0228 | -0.0746 | -0.0983 | -0.053 | 0.01 | -0.0622 | 0.0947 | -0.049 | -0.0746 | -0.0608 | 0.123
COc1cc2ncnc(Nc3ccc(F)c(Cl)c3)c2cc1OCCCN1CCOCC1 [Gefitinib] + CC(C)n1c(=O)n(C)c2cnc3cc(F)c(-c4ccc(OCCCN5CCCCC5)nc4)cc3c21 [AZD1390] (first compound max 10 µM, 7x7, partner max 0.3 µM) | -0.0393 | -0.0393 | -0.0551 | -0.0566 | -0.0243 |  | -0.0353 | -0.0378 | -0.0219 | -0.032 | -0.0756 | -0.045 | -0.0668 | -0.067 | -0.0386 | -0.083 | -0.0704 | -0.0207 | -0.0529 | 0.737
CC(=O)c1c(C)c2cnc(Nc3ccc(N4CCNCC4)cn3)nc2n(C2CCCC2)c1=O [Palbociclib] + CN(CC[C@H](CSC1=CC=CC=C1)NC2=C(C=C(C=C2)S(=O)(=O)NC(=O)C3=CC=C(C=C3)N4CCC(CC4)[C@H](C5=CC=CC=C5C6=CC=C(C=C6)Cl)O)S(=O)(=O)C(F)(F)F)CCO [AZD4320] (first compound max 10 µM, 7x7, partner max 1 µM) | -0.082 | -0.043 | -0.101 | -0.127 | 0.038 |  | -0.0417 | 0.0142 | -0.0375 | -0.0385 | -0.0316 |  | -0.0667 | -0.144 | -0.0225 | 0.0351 | -0.0627 | -0.0283 | -0.0474 | 0.227
N#Cc1cnc(Nc2cc(NC[C@H]3CNCCO3)c(C(F)(F)F)cn2)cn1 [SRA737] + C=CCn1c(=O)c2cnc(Nc3ccc(N4CCN(C)CC4)cc3)nc2n1-c1cccc(C(C)(C)O)n1 [AZD1775] (first compound max 10 µM, partner max 1 µM) |  |  |  |  |  |  |  |  |  |  |  | 0.0762 |  |  |  |  |  |  |  | 
N#Cc1cnc(Nc2cc(NC[C@H]3CNCCO3)c(C(F)(F)F)cn2)cn1 [SRA737] + CCc1c2c(nc3ccc(O)cc13)-c1cc3c(c(=O)n1C2)COC(=O)[C@]3(O)CC [SN-38] (first compound max 10 µM, 7x7, partner max 0.3 µM) |  |  |  |  |  |  |  |  |  |  |  | -0.0189 |  |  |  |  |  |  |  | 
N#Cc1cnc(Nc2cc(NC[C@H]3CNCCO3)c(C(F)(F)F)cn2)cn1 [SRA737] + O=c1[nH]cc(F)c(=O)[nH]1 [5-Fluorouracil] (first compound max 10 µM, 7x7, partner max 20 µM) |  |  |  |  |  |  |  |  |  |  |  | -0.0468 |  |  |  |  |  |  |  | 
C[C@@H](c1ccc2nccn2c1)n1nnc2ncc(-c3cnn(C)c3)nc21 [Savolitinib] + CC1(C)CCC(CN2CCN(c3ccc(C(=O)NS(=O)(=O)c4ccc(NCC5CCOCC5)c([N+](=O)[O-])c4)c(Oc4cnc5[nH]ccc5c4)c3)CC2)=C(c2ccc(Cl)cc2)C1 [Venetoclax] (first compound max 1 µM, 7x7, partner max 1 µM) | -0.0219 | -0.0562 | -0.0524 | -0.0873 | -0.0446 |  | -0.0423 | -0.0483 | -0.0255 | -0.0485 | -0.0723 | -0.0927 | -0.0571 | -0.0367 | -0.0517 | -0.0598 | -0.0605 | -0.0604 | -0.0366 | 0.168
C[C@@H](c1ccc2nccn2c1)n1nnc2ncc(-c3cnn(C)c3)nc21 [Savolitinib] + CN(CC[C@H](CSC1=CC=CC=C1)NC2=C(C=C(C=C2)S(=O)(=O)NC(=O)C3=CC=C(C=C3)N4CCC(CC4)[C@H](C5=CC=CC=C5C6=CC=C(C=C6)Cl)O)S(=O)(=O)C(F)(F)F)CCO [AZD4320] (first compound max 1 µM, 7x7, partner max 1 µM) | -0.0206 | -0.0439 | -0.0569 | -0.0994 | -0.036 |  | -0.0422 | -0.0093 | 0.0022 | -0.0196 | -0.0638 |  | -0.0514 | -0.0291 | -0.001 | -0.0202 | -0.0527 | -0.0701 | -0.0488 | 0.182
C[C@@H](c1ccc2nccn2c1)n1nnc2ncc(-c3cnn(C)c3)nc21 [Savolitinib] + Cc1c2c(nn1C)CSCc1cc(n(C)n1)CSc1cc(c3ccccc3c1)OCCCc1c(C(=O)O)n(C)c3c-2c(Cl)ccc13 [AZD5991] (first compound max 1 µM, 7x7, partner max 1 µM) | -0.0039 | -0.0697 | -0.0738 | -0.032 | -0.0359 |  | -0.0572 | 0.0471 | 0.0125 | -0.0354 | -0.103 | 0.0028 | -0.0839 | -0.0328 | -0.048 | -0.0202 | -0.0577 | -0.0128 | -0.03 | 1
